Assay results reported in ChEMBL document CHEMBL1201862, “PubChem BioAssay data set” (2004).
The source made the active and inactive calls.

How the values were obtained:
[1] = P. falciparum late gametocyte killing, dose response, luminescence (AID 1117278); format: functional, cell-based;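 also: gametocytes exposed to compound for 24 hours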
[2] = Jurkat T cell cytotoxicity, dose response, cytotoxicity control for P. falciparum gametocyte viability project, luminescence (AID 1117277); format: functional, cell-based;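 also: potency reflects loss of cellular ATP meaning fewer viable cells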
[3] = target: T1, Estrogen receptor (Homo sapiens, UniProt P03372);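 also: potency for inhibiting coactivator peptide recruitment to the receptor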
T1 sequence (P03372 whole entry): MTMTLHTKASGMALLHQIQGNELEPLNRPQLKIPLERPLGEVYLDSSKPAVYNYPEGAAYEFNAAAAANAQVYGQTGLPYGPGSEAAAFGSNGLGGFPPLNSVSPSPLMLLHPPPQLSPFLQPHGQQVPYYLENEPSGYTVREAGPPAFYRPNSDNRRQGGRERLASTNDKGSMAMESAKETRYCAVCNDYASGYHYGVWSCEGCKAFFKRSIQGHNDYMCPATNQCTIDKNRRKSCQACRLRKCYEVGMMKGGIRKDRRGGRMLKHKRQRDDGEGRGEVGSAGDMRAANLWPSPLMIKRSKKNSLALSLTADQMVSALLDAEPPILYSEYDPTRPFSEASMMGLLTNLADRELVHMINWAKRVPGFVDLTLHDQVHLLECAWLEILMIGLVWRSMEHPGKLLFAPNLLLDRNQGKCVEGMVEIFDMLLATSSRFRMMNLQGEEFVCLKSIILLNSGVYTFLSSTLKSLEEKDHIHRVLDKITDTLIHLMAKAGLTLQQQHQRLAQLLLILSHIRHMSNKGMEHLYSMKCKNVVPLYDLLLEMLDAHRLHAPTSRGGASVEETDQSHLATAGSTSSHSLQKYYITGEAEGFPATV

[4] = target: Protein Tat (Human immunodeficiency virus type 1 group M subtype B (isolate HXB2)(HIV-1), UniProt P04608); format: functional;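 also: tat binding to TAR RNA read out by fluorescence polarization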
Chain of Protein Tat (P04608 whole entry): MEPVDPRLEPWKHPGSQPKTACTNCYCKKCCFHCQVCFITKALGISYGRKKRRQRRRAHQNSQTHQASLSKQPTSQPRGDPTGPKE

[5] = inhibitors of intracellular T. cruzi replication, confirmation, NIH3T3 host cells, beta-gal luminescence (AID 2044); format: functional, cell-based;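 also: intracellular parasites grown in NIH/3T3 mouse fibroblasts as host cells; luminescent beta-galactosidase reporter signal from transgenic T. cruzi replicating inside host cells; inhibitors lower the luminescence signal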
[6] = cytotoxicity toward NIH3T3 fibroblasts, dose response, counter-screen, cell-based, ATP luminescence, mouse fibroblasts (AID 2010); format: functional;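 also: cells exposed to compound for about 90 hours before reading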
[7] = cells
[8] = target: T2, Bcl-2-related protein A1 (Mus musculus, UniProt Q07440); assay: Bfl-1 inhibitors blocking BH3 peptide binding, confirmation, biochemical, TR-FRET, mouse Bfl-1 (AID 621);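 also: TR-FRET binding of GST-Bfl-1 to FITC-labelled Bid peptide via terbium antibody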
T2 sequence (Q07440 whole entry): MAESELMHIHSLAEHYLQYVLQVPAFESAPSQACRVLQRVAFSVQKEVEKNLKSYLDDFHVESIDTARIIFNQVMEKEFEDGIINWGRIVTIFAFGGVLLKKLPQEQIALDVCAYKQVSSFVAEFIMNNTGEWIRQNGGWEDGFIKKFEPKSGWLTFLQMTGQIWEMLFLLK

[9] = target: T2, Bcl-2-related protein A1; assay: Bfl-1 binding inhibitors, SAR follow-up, biochemical, fluorescence polarization (AID 1070)
[10] = Luminescence Cell-Based Dose Response to Identify Activators of 5'UTR Stem-Loop Driven Prion Protein mRNA Translation in H4-C Neuroglioblastoma Cells. [Related pubchem assays: 1829 (Project Summary), 1814 (Primary HTS)]; format: functional
[11] = Luminescence Cell-Based Dose Response HTS to Identify Activators of Luciferase Translation or Activity in H4 […] Cells. [Related pubchem assays: 1829 (Project Summary), 1814 (Primary HTS)]; format: functional
[12] = system: H4; assay: Luminescence Cell-Based Dose Response HTS to Identify Activators of 5'UTR Stem-Loop Driven Prion Protein mRNA Translation in H4 Neuroglioblastoma Cells. [Related pubchem assays: 1829 (Project Summary), 1814 (Primary HTS)]; format: functional; conditions: Homo sapiens
[13] = Luminescence Cell-Based Dose Response to Identify Activators of Luciferase Translation or Activity in H4-C Neuroglioblastoma Cells. [Related pubchem assays: 1829 (Project Summary), 1814 (Primary HTS)]; format: functional
[14] = Luminescence Cell-Based Dose Confirmation to Identify Activators of 5'UTR Stem-Loop Driven Alpha-Synuclein mRNA Translation in H4 Neuroglioblastoma Cells. [Related pubchem assays: 1829 (Project Summary), 1814 (Primary HTS)]; format: functional
[15] = target: T3, Corticotropin-releasing factor receptor 2/Corticotropin-releasing factor-binding protein (Homo sapiens, UniProt P24387+Q13324); assay: activators of CRF receptor 2 with binding protein – uHTS hits, confirmation (AID 602473); format: functional; conditions: read-out: EC50_Mean
T3 sequence (Q13324 whole entry): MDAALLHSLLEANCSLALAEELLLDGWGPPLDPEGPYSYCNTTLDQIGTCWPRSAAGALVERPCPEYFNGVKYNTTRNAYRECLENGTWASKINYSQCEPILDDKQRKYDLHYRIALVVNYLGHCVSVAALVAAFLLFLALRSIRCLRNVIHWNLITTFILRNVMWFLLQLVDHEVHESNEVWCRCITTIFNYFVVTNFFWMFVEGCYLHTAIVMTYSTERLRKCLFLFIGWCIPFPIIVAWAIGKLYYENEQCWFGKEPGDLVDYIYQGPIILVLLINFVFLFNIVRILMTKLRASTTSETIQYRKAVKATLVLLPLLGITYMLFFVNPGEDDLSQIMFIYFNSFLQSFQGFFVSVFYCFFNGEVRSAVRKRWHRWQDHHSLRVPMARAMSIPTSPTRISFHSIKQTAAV
T3 sequence (P24387 whole entry): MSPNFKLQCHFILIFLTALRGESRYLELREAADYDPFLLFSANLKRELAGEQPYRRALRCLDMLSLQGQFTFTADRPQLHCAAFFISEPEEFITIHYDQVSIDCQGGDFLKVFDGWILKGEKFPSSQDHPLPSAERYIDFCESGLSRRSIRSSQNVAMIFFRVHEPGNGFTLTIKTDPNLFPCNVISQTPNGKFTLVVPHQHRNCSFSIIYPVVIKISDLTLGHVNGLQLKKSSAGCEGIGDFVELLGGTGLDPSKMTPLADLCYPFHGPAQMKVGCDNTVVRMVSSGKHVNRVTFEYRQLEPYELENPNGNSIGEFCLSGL

[16] = M. tuberculosis H37Rv growth inhibitors, H37Rv strain (AID 1626); format: functional
[17] = target: Protein-tyrosine kinase 2-beta (Homo sapiens, UniProt Q14289);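 also: potency of inhibitors of PYK2 kinase phosphorylation of poly-GT substrate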
Chain of Protein-tyrosine kinase 2-beta (Q14289 whole entry): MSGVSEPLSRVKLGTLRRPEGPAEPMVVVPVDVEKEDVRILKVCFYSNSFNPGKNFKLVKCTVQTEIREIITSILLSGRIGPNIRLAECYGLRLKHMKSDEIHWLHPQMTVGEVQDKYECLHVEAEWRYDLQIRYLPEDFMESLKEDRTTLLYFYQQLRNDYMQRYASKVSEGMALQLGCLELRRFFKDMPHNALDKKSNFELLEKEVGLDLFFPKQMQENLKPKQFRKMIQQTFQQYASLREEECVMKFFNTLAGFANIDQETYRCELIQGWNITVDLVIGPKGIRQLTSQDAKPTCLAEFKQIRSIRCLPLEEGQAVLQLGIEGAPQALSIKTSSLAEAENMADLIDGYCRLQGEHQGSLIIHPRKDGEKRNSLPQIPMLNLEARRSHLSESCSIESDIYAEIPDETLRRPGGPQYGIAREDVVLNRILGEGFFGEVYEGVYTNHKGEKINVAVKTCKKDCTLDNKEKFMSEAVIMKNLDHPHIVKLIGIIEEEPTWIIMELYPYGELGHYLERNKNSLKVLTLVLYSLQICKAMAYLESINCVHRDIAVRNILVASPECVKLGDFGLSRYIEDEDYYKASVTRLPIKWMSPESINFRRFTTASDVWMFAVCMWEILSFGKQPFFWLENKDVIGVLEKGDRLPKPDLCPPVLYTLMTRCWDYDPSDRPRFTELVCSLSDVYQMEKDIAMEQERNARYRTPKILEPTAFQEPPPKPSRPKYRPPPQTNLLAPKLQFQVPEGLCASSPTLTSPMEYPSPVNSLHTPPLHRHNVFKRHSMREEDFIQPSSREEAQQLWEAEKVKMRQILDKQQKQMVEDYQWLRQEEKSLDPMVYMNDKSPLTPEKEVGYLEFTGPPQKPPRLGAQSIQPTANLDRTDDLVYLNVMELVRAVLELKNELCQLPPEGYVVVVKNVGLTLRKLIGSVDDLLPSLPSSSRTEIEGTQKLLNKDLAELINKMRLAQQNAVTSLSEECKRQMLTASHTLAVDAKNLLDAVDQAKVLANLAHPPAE

[18] = inhibitors of Vif binding to APOBEC3G peptide, primary screen, biochemical, TR-FRET, GST-Vif 1-94, biotin-A3G peptide, dose response retest (AID 1117319); format: functional;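 also: TR-FRET signal of purified GST-Vif binding a biotinylated A3G peptide; inhibitors lower the FRET signal by blocking Vif and A3G binding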
[19] = target: Cytochrome P450 2D6 (Homo sapiens, UniProt P10635);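 also: CYP2D6 member of a cytochrome P450 panel assay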
Chain of Cytochrome P450 2D6 (P10635 whole entry): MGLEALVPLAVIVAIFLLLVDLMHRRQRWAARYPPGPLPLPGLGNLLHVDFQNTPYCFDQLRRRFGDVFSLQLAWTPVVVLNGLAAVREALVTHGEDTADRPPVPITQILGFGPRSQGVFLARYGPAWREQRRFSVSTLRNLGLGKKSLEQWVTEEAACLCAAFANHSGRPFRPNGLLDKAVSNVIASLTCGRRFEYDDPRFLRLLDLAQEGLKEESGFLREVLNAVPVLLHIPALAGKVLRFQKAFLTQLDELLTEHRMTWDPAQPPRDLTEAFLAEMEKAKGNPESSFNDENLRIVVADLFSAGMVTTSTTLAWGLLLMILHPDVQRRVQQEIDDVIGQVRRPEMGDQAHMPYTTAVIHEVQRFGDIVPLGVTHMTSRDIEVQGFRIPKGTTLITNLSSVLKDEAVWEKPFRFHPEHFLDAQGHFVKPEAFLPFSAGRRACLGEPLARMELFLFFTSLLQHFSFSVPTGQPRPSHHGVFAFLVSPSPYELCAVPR

[20] = target: Cytochrome P450 3A4 (Homo sapiens, UniProt P08684);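 also: CYP3A4 tested as one member of a cytochrome P450 panel screen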
Chain of Cytochrome P450 3A4 (P08684 whole entry): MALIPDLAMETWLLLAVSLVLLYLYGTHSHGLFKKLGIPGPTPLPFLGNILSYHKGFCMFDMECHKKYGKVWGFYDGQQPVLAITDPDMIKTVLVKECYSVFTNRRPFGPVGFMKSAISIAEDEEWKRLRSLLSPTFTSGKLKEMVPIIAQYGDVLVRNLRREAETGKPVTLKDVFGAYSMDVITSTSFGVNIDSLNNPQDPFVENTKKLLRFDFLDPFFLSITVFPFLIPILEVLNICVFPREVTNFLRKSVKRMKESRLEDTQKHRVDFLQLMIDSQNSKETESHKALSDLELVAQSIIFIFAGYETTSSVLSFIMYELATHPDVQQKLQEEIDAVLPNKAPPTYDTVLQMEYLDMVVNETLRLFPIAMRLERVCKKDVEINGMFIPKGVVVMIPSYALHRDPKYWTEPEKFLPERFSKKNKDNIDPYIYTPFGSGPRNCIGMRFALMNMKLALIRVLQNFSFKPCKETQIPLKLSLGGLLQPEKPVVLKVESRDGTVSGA

[21] = target: E3 ubiquitin-protein ligase Mdm2 (Homo sapiens, UniProt Q00987); assay: enhancers of MDM2-luciferase reporter signal, concentration-effect titration, project on inhibitors of MDM2 ubiquitin ligase, cellular assay, luminescent readout, 384-well plate format (AID 1394); format: functional;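 also: MDM2 E3 inhibitors raise luminescence so EC50 is for signal enhancement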
Chain of E3 ubiquitin-protein ligase Mdm2 (Q00987 whole entry): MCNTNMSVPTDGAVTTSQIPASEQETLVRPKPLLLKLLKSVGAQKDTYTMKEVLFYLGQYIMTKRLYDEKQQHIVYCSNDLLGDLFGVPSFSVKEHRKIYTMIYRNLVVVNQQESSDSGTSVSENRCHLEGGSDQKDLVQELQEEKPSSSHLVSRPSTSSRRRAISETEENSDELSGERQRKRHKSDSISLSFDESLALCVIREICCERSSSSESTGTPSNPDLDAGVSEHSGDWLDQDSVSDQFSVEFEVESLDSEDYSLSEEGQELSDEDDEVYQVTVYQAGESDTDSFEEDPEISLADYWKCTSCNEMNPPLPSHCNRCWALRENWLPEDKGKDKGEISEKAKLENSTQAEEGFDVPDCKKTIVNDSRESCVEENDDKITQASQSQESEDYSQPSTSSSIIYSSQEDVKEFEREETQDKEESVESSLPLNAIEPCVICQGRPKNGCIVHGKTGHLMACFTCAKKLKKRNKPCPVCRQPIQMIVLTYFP

[22] = target: T4, Microphthalmia-associated transcription factor (Homo sapiens, UniProt O75030); assay: TRPM1 promoter luciferase signal decrease, dose response, MITF inhibitor project, cell-based, SK-MEL-5, cherry-picked, set 3 (AID 493073); format: functional
T4 sequence (O75030 whole entry): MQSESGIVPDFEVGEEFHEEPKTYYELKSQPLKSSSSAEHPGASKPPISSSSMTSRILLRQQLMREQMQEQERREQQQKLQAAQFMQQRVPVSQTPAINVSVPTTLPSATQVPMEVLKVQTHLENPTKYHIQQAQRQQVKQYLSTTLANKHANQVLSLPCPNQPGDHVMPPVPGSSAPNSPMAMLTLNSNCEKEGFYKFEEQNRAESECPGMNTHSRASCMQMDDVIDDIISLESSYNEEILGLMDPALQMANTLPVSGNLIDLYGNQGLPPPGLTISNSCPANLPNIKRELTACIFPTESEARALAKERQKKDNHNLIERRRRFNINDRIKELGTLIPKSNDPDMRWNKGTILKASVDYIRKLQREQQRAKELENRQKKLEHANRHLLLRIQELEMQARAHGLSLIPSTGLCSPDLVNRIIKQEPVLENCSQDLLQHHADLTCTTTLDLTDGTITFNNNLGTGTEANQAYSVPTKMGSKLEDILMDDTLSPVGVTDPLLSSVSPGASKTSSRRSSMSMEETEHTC

[23] = target: T5, Polyadenylate-binding protein 1 (Homo sapiens, UniProt P11940); assay: PABP1 MLLE–PAM2 interaction inhibitors, dose response, miRNA deadenylation inhibitor project, biochemical, fluorescence polarization, Cy5-PAM2 peptide, secondary (AID 602260); format: functional; conditions: read-out: IC50_Mean
T5 sequence (P11940 whole entry): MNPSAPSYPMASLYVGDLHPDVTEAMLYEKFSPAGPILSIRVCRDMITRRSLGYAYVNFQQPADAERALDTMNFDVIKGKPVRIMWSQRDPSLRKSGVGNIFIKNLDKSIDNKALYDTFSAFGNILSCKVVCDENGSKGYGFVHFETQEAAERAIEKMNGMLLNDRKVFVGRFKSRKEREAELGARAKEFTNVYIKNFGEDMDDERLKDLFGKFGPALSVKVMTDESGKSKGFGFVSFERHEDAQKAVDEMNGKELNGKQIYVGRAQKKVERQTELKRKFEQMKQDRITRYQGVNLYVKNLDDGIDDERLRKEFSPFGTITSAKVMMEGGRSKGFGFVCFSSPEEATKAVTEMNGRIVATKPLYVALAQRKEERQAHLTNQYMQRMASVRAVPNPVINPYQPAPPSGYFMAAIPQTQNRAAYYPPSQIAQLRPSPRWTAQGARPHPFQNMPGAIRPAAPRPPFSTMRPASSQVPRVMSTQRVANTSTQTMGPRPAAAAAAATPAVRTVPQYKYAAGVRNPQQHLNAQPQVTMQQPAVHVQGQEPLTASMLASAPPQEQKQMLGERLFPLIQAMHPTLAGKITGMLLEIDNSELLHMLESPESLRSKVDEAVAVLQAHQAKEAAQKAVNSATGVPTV

[24] = target: T5, Polyadenylate-binding protein 1; assay: PABP1 MLLE–PAM2 binding inhibitor potency, dose response, biochemical, fluorescence polarization, FITC-PAM2 peptide (AID 602259); format: functional; conditions: read-out: IC50_Mean

O=C(Cc1ccc(-c2ccccc2)cc1)NC(c1ccccc1)c1ccccc1
IC50 [1]: > 109 µM (inactive) | IC50 [2]: > 83.3 µM (inactive)

CC(=O)c1cccc(NC(=O)CN2C(=O)NC3(CCCCCCC3)C2=O)c1
IC50 [3]: 48.2 µM (not active) | IC50 [4]: > 100 µM (active)

CN1CCN(c2nc(-c3ccc(Br)cc3)nnc2-c2ccccc2)CC1
EC50 [5]: < 0.1 µM (active) | EC50 [6]: > 60 µM (inconclusive) | EC50 [7]: 0.008 µM (active)

COc1ncccc1-c1nnn(-c2ccc(C)cc2)n1
IC50 [8]: > 100 µM (not active) | IC50 [9]: > 100 µM (not active)

Cc1nnc(SCC(=O)c2cc(C)n(C3CC3)c2C)s1
EC50 [10]: 0.594 µM (active) | EC50 [11]: < 0.1 µM (active) | EC50 [12]: > 120 µM (not active) | EC50 [13]: 0.266 µM (active) | EC50 [14]: 1.88 µM (active) | EC50 [15]: 7.62 µM (active)

O=Cc1ccc2noc(-c3ccc(F)cc3)c2c1
IC50 [16]: > 100 µM (active) | IC50 [17]: > 69.5 µM (not active)

O=C(N/N=C/c1ccc(F)cc1)c1ccc(Br)cc1
IC50 [18]: > 50 µM (active) | AC50 [19]: 3.55 µM (inconclusive) | AC50 [20]: 22.4 µM (inconclusive)

COC(=O)CSC1=C(C#N)C(=O)NC(c2ccccc2)S1 (centres undefined)
EC50 [21]: 2.15 µM (active) | AC50 [22]: 7.06 µM (active) | IC50 [23]: > 66 µM (inactive) | IC50 [24]: > 66 µM (inactive)
